Measurements taken from ChEMBL document CHEMBL6087462, “Cuminaldehyde Potentiates Antiproteolytic Peptide Efficacy via Parallel Pathways of Enhanced Inner Membrane-Damaging Activity and Inhibition of Bacterial Energy Metabolism” (J Med Chem, 2025).

Legend:
Escherichia coli [1] = experiment: Synergistic antimicrobial activity against Escherichia coli UB1005 assessed as fractional inhibitory concentration index in presence of citronellal by checkerboard broth microdilution assay; type: functional
Pseudomonas aeruginosa [2] = experiment: Synergistic antimicrobial activity against Pseudomonas aeruginosa 27853 assessed as fractional inhibitory concentration index in presence of citronellal by checkerboard broth microdilution assay; type: functional
Salmonella typhimurium [3] = experiment: Synergistic antimicrobial activity against Salmonella typhimurium ATCC 14028 assessed as fractional inhibitory concentration by checkerboard broth microdilution assay; type: functional, Salmonella enterica subsp. enterica serovar Typhimurium
Escherichia coli [4] = experiment: Synergistic antimicrobial activity against Escherichia coli 25922 assessed as fractional inhibitory concentration index in presence of thymol by checkerboard broth microdilution assay; type: functional
Salmonella typhimurium [5] = experiment: Antimicrobial activity against Salmonella typhimurium ATCC 7731 assessed as cuminaldehyde MIC by CLSI based broth microdilution method; type: functional, Salmonella enterica subsp. enterica serovar Typhimurium; settings: Salmonella enterica
Enterococcus faecalis [6] = experiment: Synergistic antimicrobial activity against Enterococcus faecalis 29212 assessed as fractional inhibitory concentration index in presence of perillaldehyde by checkerboard broth microdilution assay; type: functional
Salmonella typhimurium [7] = experiment: Synergistic antimicrobial activity against Salmonella typhimurium 7731 assessed as fractional inhibitory concentration index in presence of cuminaldehyde by checkerboard broth microdilution assay; type: functional, Salmonella enterica subsp. enterica serovar Typhimurium
[8] = test system: Staphylococcus epidermidis; experiment: Synergistic antimicrobial activity against Staphylococcus epidermidis 12228 assessed as fractional inhibitory concentration index in presence of thymol by checkerboard broth microdilution assay; type: functional
Staphylococcus aureus [9] = experiment: Synergistic antimicrobial activity against Staphylococcus aureus 29213 assessed as fractional inhibitory concentration index in presence of citronellal by checkerboard broth microdilution assay; type: functional
Escherichia coli [10] = experiment: Antimicrobial activity against Escherichia coli K99 assessed as cuminaldehyde MIC by CLSI based broth microdilution method; type: functional
Escherichia coli [11] = experiment: Synergistic antimicrobial activity against Escherichia coli K99 assessed as fractional inhibitory concentration index in presence of citral by checkerboard broth microdilution assay; type: functional
Staphylococcus aureus [12] = experiment: Synergistic antimicrobial activity against Staphylococcus aureus ATCC 29213 assessed as fractional inhibitory concentration by checkerboard broth microdilution assay; type: functional
Escherichia coli [13] = experiment: Synergistic antimicrobial activity against Escherichia coli 078 assessed as fractional inhibitory concentration index in presence of perillaldehyde by checkerboard broth microdilution assay; type: functional, 78
Escherichia coli [14] = experiment: Synergistic antimicrobial activity against Escherichia coli K99 assessed as fractional inhibitory concentration index in presence of perillaldehyde by checkerboard broth microdilution assay; type: functional
Salmonella typhimurium [15] = experiment: Synergistic antimicrobial activity against Salmonella typhimurium 7731 assessed as fractional inhibitory concentration index in presence of carvacrol by checkerboard broth microdilution assay; type: functional, Salmonella enterica subsp. enterica serovar Typhimurium
Escherichia coli [16] = experiment: Synergistic antimicrobial activity against Escherichia coli 078 assessed as fractional inhibitory concentration index in presence of citronellal by checkerboard broth microdilution assay; type: functional, 78
Pseudomonas aeruginosa [17] = experiment: Antimicrobial activity against Pseudomonas aeruginosa ATCC 27853 assessed as cuminaldehyde MIC by CLSI based broth microdilution method; type: functional
Staphylococcus aureus [18] = experiment: Synergistic antimicrobial activity against Staphylococcus aureus 29213 assessed as fractional inhibitory concentration index in presence of citral by checkerboard broth microdilution assay; type: functional
Enterococcus faecalis [19] = experiment: Synergistic antimicrobial activity against Enterococcus faecalis 29212 assessed as fractional inhibitory concentration index in presence of carvacrol by checkerboard broth microdilution assay; type: functional
Escherichia coli [20] = experiment: Synergistic antimicrobial activity against Escherichia coli K88 assessed as fractional inhibitory concentration index in presence of perillaldehyde by checkerboard broth microdilution assay; type: functional
Salmonella typhimurium [21] = experiment: Synergistic antimicrobial activity against Salmonella typhimurium 14028 assessed as fractional inhibitory concentration index in presence of citronellal by checkerboard broth microdilution assay; type: functional, Salmonella enterica subsp. enterica serovar Typhimurium
Staphylococcus aureus [22] = experiment: Synergistic antimicrobial activity against Staphylococcus aureus 25923 assessed as fractional inhibitory concentration index in presence of cuminaldehyde by checkerboard broth microdilution assay; type: functional
Salmonella typhimurium [23] = experiment: Synergistic antimicrobial activity against Salmonella typhimurium 7731 assessed as fractional inhibitory concentration index in presence of citronellal by checkerboard broth microdilution assay; type: functional, Salmonella enterica subsp. enterica serovar Typhimurium
Enterococcus faecalis [24] = experiment: Antimicrobial activity against Enterococcus faecalis ATCC 29212 assessed as cuminaldehyde MIC by CLSI based broth microdilution method; type: functional
Escherichia coli [25] = experiment: Synergistic antimicrobial activity against Escherichia coli 078 assessed as fractional inhibitory concentration index in presence of carvacrol by checkerboard broth microdilution assay; type: functional, 78
Enterococcus faecalis [26] = experiment: Synergistic antimicrobial activity against Enterococcus faecalis 29212 assessed as fractional inhibitory concentration index in presence of cuminaldehyde by checkerboard broth microdilution assay; type: functional
Escherichia coli [27] = experiment: Antimicrobial activity against Escherichia coli K99 assessed as reduction in microbial growth by CLSI based broth microdilution method; type: functional
Escherichia coli [28] = experiment: Synergistic antimicrobial activity against Escherichia coli 078 assessed as fractional inhibitory concentration index in presence of thymol by checkerboard broth microdilution assay; type: functional, 78
Salmonella typhimurium [29] = experiment: Synergistic antimicrobial activity against Salmonella typhimurium 7731 assessed as fractional inhibitory concentration index in presence of citral by checkerboard broth microdilution assay; type: functional, Salmonella enterica subsp. enterica serovar Typhimurium
Enterococcus faecalis [30] = experiment: Antimicrobial activity against Enterococcus faecalis ATCC 29212 assessed as reduction in microbial growth in presence of cuminaldehyde by CLSI based broth microdilution method; type: functional
Escherichia coli [31] = experiment: Antimicrobial activity against Escherichia coli ATCC 25922 assessed as reduction in microbial growth in presence of cuminaldehyde by CLSI based broth microdilution method; type: functional
Staphylococcus aureus [32] = experiment: Antimicrobial activity against Staphylococcus aureus ATCC 25923 assessed as cuminaldehyde MIC by CLSI based broth microdilution method; type: functional
Staphylococcus aureus [33] = experiment: Synergistic antimicrobial activity against Staphylococcus aureus 25923 assessed as fractional inhibitory concentration index in presence of perillaldehyde by checkerboard broth microdilution assay; type: functional
Escherichia coli [34] = experiment: Synergistic antimicrobial activity against Escherichia coli K88 assessed as fractional inhibitory concentration index in presence of citronellal by checkerboard broth microdilution assay; type: functional
Salmonella typhimurium [35] = experiment: Synergistic antimicrobial activity against Salmonella typhimurium 14028 assessed as fractional inhibitory concentration index in presence of perillaldehyde by checkerboard broth microdilution assay; type: functional, Salmonella enterica subsp. enterica serovar Typhimurium
Escherichia coli [36] = experiment: Synergistic antimicrobial activity against Escherichia coli K99 assessed as fractional inhibitory concentration by checkerboard broth microdilution assay; type: functional
Salmonella typhimurium [37] = experiment: Synergistic antimicrobial activity against Salmonella typhimurium 7731 assessed as fractional inhibitory concentration index in presence of thymol by checkerboard broth microdilution assay; type: functional, Salmonella enterica subsp. enterica serovar Typhimurium
[38] = test system: Staphylococcus epidermidis; experiment: Synergistic antimicrobial activity against Staphylococcus epidermidis 12228 assessed as fractional inhibitory concentration index in presence of perillaldehyde by checkerboard broth microdilution assay; type: functional
[39] = Antimicrobial activity against Salmonella enterica subsp. enterica serovar Pullorum ATCC 7913 assessed as reduction in microbial growth by CLSI based broth microdilution method; type: functional
Escherichia coli [40] = experiment: Synergistic antimicrobial activity against Escherichia coli K88 assessed as fractional inhibitory concentration index in presence of citral by checkerboard broth microdilution assay; type: functional
Escherichia coli [41] = experiment: Antimicrobial activity against Escherichia coli 078 assessed as reduction in microbial growth by CLSI based broth microdilution method; type: functional
Escherichia coli [42] = experiment: Synergistic antimicrobial activity against Escherichia coli 25922 assessed as fractional inhibitory concentration index in presence of citronellal by checkerboard broth microdilution assay; type: functional
Staphylococcus aureus [43] = experiment: Synergistic antimicrobial activity against Staphylococcus aureus 43300 assessed as fractional inhibitory concentration index in presence of cuminaldehyde by checkerboard broth microdilution assay; type: functional

CC[C@H](C)[C@H](NC(=O)[C@@H](NC(=O)[C@@H](CCCNC(=N)N)NC(=O)[C@H](C)NC(=O)[C@H](C)NC(=O)[C@@H](N)Cc1cccc2ccccc12)[C@@H](C)CC)C(=O)N[C@@H](CC(C)C)C(=O)N[C@H](CCCNC(=N)N)C(=O)N[C@@H](Cc1c[nH]c2ccccc12)C(=O)N[C@H](CCCNC(=N)N)C(=O)N[C@@H](Cc1ccccc1)C(=O)N[C@@H](CCCNC(=N)N)C(=O)O
fractional inhibitory concentration index (FICI) (Escherichia coli [1]): 0.266 | fractional inhibitory concentration index (FICI) (Pseudomonas aeruginosa [2]): 0.254 | FIC (Salmonella typhimurium [3]): 0.25 | fractional inhibitory concentration index (FICI) (Escherichia coli [4]): 0.313 | MIC (Salmonella typhimurium [5]): 1020 µg/mL | fractional inhibitory concentration index (FICI) (Enterococcus faecalis [6]): 0.625 | fractional inhibitory concentration index (FICI) (Salmonella typhimurium [7]): 0.125 | fractional inhibitory concentration index (FICI) [8]: 0.75 | fractional inhibitory concentration index (FICI) (Staphylococcus aureus [9]): 0.94 | MIC (Escherichia coli [10]): 1020 µg/mL | fractional inhibitory concentration index (FICI) (Escherichia coli [11]): 0.375 | FIC (Staphylococcus aureus [12]): 0.25 | fractional inhibitory concentration index (FICI) (Escherichia coli [13]): 0.188 | fractional inhibitory concentration index (FICI) (Escherichia coli [14]): 0.375 | fractional inhibitory concentration index (FICI) (Salmonella typhimurium [15]): 0.5 | fractional inhibitory concentration index (FICI) (Escherichia coli [16]): 0.156 | MIC (Pseudomonas aeruginosa [17]): 512 µg/mL | fractional inhibitory concentration index (FICI) (Staphylococcus aureus [18]): 0.385 | fractional inhibitory concentration index (FICI) (Enterococcus faecalis [19]): 0.375 | fractional inhibitory concentration index (FICI) (Escherichia coli [20]): 0.375 | fractional inhibitory concentration index (FICI) (Salmonella typhimurium [21]): 0.254 | fractional inhibitory concentration index (FICI) (Staphylococcus aureus [22]): 0.188 | fractional inhibitory concentration index (FICI) (Salmonella typhimurium [23]): 0.254 | MIC (Enterococcus faecalis [24]): 512 µg/mL | fractional inhibitory concentration index (FICI) (Escherichia coli [25]): 0.5 | fractional inhibitory concentration index (FICI) (Enterococcus faecalis [26]): 0.313 | MIC (Escherichia coli [27]): 8 µg/mL | fractional inhibitory concentration index (FICI) (Escherichia coli [28]): 0.5 | fractional inhibitory concentration index (FICI) (Salmonella typhimurium [29]): 0.141 | MIC (Enterococcus faecalis [30]): 1 µg/mL | MIC (Escherichia coli [31]): 1 µg/mL | MIC (Staphylococcus aureus [32]): 256 µg/mL | fractional inhibitory concentration index (FICI) (Staphylococcus aureus [33]): 0.625 | fractional inhibitory concentration index (FICI) (Escherichia coli [34]): 0.156 | fractional inhibitory concentration index (FICI) (Salmonella typhimurium [35]): 0.254 | FIC (Escherichia coli [36]): 0.25 | fractional inhibitory concentration index (FICI) (Salmonella typhimurium [37]): 0.313 | fractional inhibitory concentration index (FICI) [38]: 0.375 | MIC [39]: 16 µg/mL | fractional inhibitory concentration index (FICI) (Escherichia coli [40]): 0.188 | MIC (Escherichia coli [41]): 8 µg/mL | fractional inhibitory concentration index (FICI) (Escherichia coli [42]): 0.25 | fractional inhibitory concentration index (FICI) (Staphylococcus aureus [43]): 0.375
